The record followed here is patent US20210161147A1, “BROAD SPECTRUM COSMETIC PRESERVATIVE SYSTEM” (priority 2019, published 2021).

The experiment relates to microbes (bacteria and fungi). Put plainly: USP 51, Antimicrobial Effectiveness Test. It is filed as cell-based. The note with it: combined with 12.5 ppm colloidal silver; aqueous solution containing seaweed extract.

As for `CS(C)(=O)=O` [MSM, methylsulfonylmethane], the “sufficient concentration of MSM for effective cosmetic preservation per USP 51” value is on record as 10 % (w/w).
